In patent publication US11883387B2, “PqsR inverse agonists” (HELMHOLTZ-ZENTRUM FÜR INFEKTIONSFORSCHUNG GMBH, priority 2018, dated 2024) one finds IC50 data, which are given here for 29 compounds.

The target in one test is PqsR (Pseudomonas aeruginosa, UniProt Q9I4X0). Briefly: E. coli based β-galactosidase reporter gene assay (PqsR inverse agonistic activity). In kind it is cell-based. More on the design: expressed in transfected cells; host or cells: Escherichia coli DH5α. How it is done: Inhibition of pqsR-dependent gene expression of test compounds was determined in an E. coli based β-galactosidase reporter gene assay.[19] Escherichia coli DH5α was transfected with pEAL08-2 plasmid encoding pqsR under control of promoter tac and β-galactosidase reporter gene lacZ under control of promoter pqsA. Antagonistic effects of compounds were evaluated in the presence of/in competition to 50 nM PQS. A positive control was used to ensure the reliability of individual assays. First, PQS was diluted in methanol and added to the wells of a glass coated 96-deep-well plate, and the solvent was evaporated. Then, compounds were added in 5 μL DMSO to final concentrations of 0.001-10 μM. Overnight cultures of E. coli DH5a×pEAL08-2 were diluted 1:100 in LB medium with ampicillin (50 μg/ml) and incubated at 37° C. with shaking until it reached an OD600 of 0.2. Finally, 995 μL of culture was added to each well and the p-galactosidase activity was determined by ortho-nitrophenyl-p-galactoside conversion in permeabilized cells after a 2.5 h incubation period (37° C., 180 rpm). OD600, OD420, and OD550 were measured using POLARstar Omega (BMG Labtech, Ortenberg, Germany), and the activity was expressed as ratio of the slope of β-galactosidase activity between basal control (no PQS) and solvent control. IC50 values of antagonists were determined by variation of the concentration of the test compounds.

Test [1] relates to P. aeruginosa pyocyanin production. Briefly: Pyocyanin assay. In kind it is cell-based, P. aeruginosa PA14. To be noted: Pseudomonas aeruginosa, PA14, 16 h, read-out: IC50-value towards pyocyanin production, PA14 in PPGAS medium, 16 h. How it is done: Inhibition of P. aeruginosa pyocyanin production by compounds was determined photometrically as described before.[20] In short, an overnight culture of PA14 in PPGAS medium was washed, diluted in medium to a start OD600 of 0.02, and incubated for 16 h (37° C., 200 rpm, relative humidity 75%) in the presence of test compounds. Then, cultures were extracted with chloroform and re-extracted with 0.2 M HCl. Protonated red colored pyocyanin was determined by measuring OD520 and normalizing to OD600.

Molecules are shown by their SMILES.

Sequence of PqsR (Q9I4X0 whole entry): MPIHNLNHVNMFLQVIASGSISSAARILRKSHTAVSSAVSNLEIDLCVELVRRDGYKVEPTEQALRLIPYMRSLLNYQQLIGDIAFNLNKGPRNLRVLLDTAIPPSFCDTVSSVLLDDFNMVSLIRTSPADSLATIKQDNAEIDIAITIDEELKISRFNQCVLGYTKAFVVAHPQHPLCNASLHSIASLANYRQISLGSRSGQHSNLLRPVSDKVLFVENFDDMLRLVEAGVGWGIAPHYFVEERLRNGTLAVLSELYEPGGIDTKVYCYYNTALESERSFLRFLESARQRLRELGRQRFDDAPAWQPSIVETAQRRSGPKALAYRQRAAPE

Consider `FC(F)(F)c1cc(NCc2cn(-c3ccc(Cl)c(Cl)c3)nn2)ccn1` [Compound 005, N-((1-(3,4-Dichlorophenyl)-1H-1,2,3-triazol-4-yl)methyl)-2-(trifluoromethyl)pyridin-4-amine], for which the IC50 on PqsR was no more than 50 nM; in test [1], 251 to 1000 nM. In the same order, the values of `COc1ccc(-n2cc(CNc3ccnc(C(F)(F)F)c3)nn2)cc1` [Compound 006, N-((1-(4-Methoxyphenyl)-1H-1,2,3-triazol-4-yl)methyl)-2-(trifluoromethyl)pyridin-4-amine] are 51 to 250 nM and 1000 to 5000 nM. For the compound `CSc1ccc(-n2cc(CNc3ccnc(C(F)(F)F)c3)nn2)cc1` [Compound 016, N-((1-(4-(methylthio)phenyl)-1H-1,2,3-triazol-4-yl)methyl)-2-(trifluoromethyl)pyridin-4-amine], the values for the IC50 (on PqsR; in test [1]) were no more than 50 nM and 1000 to 5000 nM, respectively. `FC(F)(F)c1cc(NCc2cn(-c3ccc(Nc4ccccc4)cc3)nn2)ccn1` [Compound 018, N-((1-(4-(Phenylamino)phenyl)-1H-1,2,3-triazol-4-yl)methyl)-2-(trifluoromethyl)pyridin-4-amine]: the figures for the IC50 (at PqsR; in test [1]) were no more than 50 nM and 251 to 1000 nM, respectively. In the same order, the values of `FC(F)(F)c1cncc(NCc2cn(-c3ccc(Oc4ccccc4)cc3)nn2)c1` [Compound 021, N-((1-(4-phenoxyphenyl)-1H-1,2,3-triazol-4-yl)methyl)-5-(trifluoromethyl)pyridin-3-amine] are no more than 50 nM and 1000 to 5000 nM. On to `FC(F)(F)c1cc(NCc2cn(-c3ccc(Cc4ccncc4)cc3)nn2)ccn1` [Compound 025, N-((1-(4-(Pyridin-4-ylmethyl)phenyl)-1H-1,2,3-triazol-4-yl)methyl)-2-(trifluoromethyl)pyridin-4-amine], for which the IC50 is no more than 50 nM on PqsR and 251 to 1000 nM in test [1]. The like results for `COc1ccc(-n2cc(CNc3ccnc(C(F)(F)F)c3)nn2)cc1F` [Compound 026, N-((1-(3-Fluoro-4-methoxyphenyl)-1H-1,2,3-triazol-4-yl)methyl)-2-(trifluoromethyl)pyridin-4amine] were, in that order, no more than 50 nM and 1000 to 5000 nM. In the case of `Clc1cc(NCc2cn(-c3ccc(Oc4ccccc4)cc3)nn2)ccn1` [Compound 049, 2-Chloro-N-((1-(4-phenoxyphenyl)-1H-1,2,3-triazol-4-yl)methyl)pyridin-4-amine], the results for the IC50 (at PqsR; in test [1]) were no more than 50 nM and 251 to 1000 nM, respectively. In the same order, the values of `N#Cc1cc(NCc2cn(-c3ccc(Oc4ccccc4)cc3)nn2)cc(C#N)n1` [Compound 052, 4-(((1-(4-Phenoxyphenyl)-1H-1,2,3-triazol-4-yl)methyl)amino)pyridine-2,6-dicarbonitrile] are no more than 50 nM and no more than 250 nM. Turning to `FC(F)(F)c1cc(NCc2cn(-c3ccc(Oc4ccccc4)c(Cl)c3)nn2)ccn1` [Compound 053, N-((1-(3-Chloro-4-phenoxyphenyl)-1H-1,2,3-triazol-4-yl)methyl)-2-(trifluoromethyl)pyridin-4-amine], the IC50 on PqsR is no more than 50 nM; in test [1] it was no more than 250 nM. As for `FC(F)(F)c1nccc(SCc2cn(-c3ccc(Oc4ccccc4)cc3)nn2)n1` [Compound 061, 4-(((1-(4-phenoxyphenyl)-1H-1,2,3-triazol-4-yl)methyl)thio)-2-(trifluoromethyl)pyrimidine], the IC50 on PqsR was no more than 50 nM; in test [1], 251 to 1000 nM. With `COc1cc(SCc2nc3cc(Oc4ccccc4)ccc3[nH]2)nc(C(F)(F)F)n1` [Compound 126, 2-(((6-Methoxy-2-(trifluoromethyl)pyrimidin-4-yl)thio)methyl)-5-phenoxy-1H-benzo[d]imidazole], on PqsR, the half-maximal inhibitory concentration (IC50) lay within 251 to 1000 nM.

The compound `Fc1cccc(Oc2ccc3[nH]c(CSc4ccnc(C(F)(F)F)c4)nc3c2)c1` [Compound 130, 5-(3-Fluorophenoxy)-2-(((2-(trifluoromethyl)pyridin-4-yl)thio)methyl)-1H-benzo[d]imidazole] returned an IC50 at PqsR of no more than 50 nM. In the case of `FC(F)(F)c1cc(OCc2nc3ccc(Oc4ccccc4)cc3o2)ccn1` [Compound 133, 6-Phenoxy-2-(((2-(trifluoromethyl)pyridin-4-yl)oxy)methyl)benzo[d]oxazole], the half-inhibitory concentration (IC50) on PqsR was 251 to 1000 nM. On the same count and under the same terms, then `FC(F)(F)c1cc(SCc2ccn(-c3ccc(Cl)cc3)n2)ccn1` [Compound 135, 4-(((1-(4-chlorophenyl)-1H-pyrazol-3-yl)methyl)thio)-2-(trifluoromethyl)-pyridine], with 251 to 1000 nM. As for `FC(F)(F)c1cc(SCc2nnc(-c3ccc(Cl)cc3)o2)ccn1` [Compound 136, 2-(4-Chlorophenyl)-5-(((2-(trifluoromethyl)pyridin-4-yl)thio)methyl)-1,3,4-oxadiazole], at PqsR, the IC50 is 251 to 1000 nM.

For `FC(F)(F)c1cc(SCc2nc(-c3ccc(Cl)cc3)no2)ccn1` [Compound 137, 3-(4-Chlorophenyl)-5-(((2-(trifluoromethyl)pyridin-4-yl)thio)methyl)-1,2,4-oxadiazole], the IC50 on PqsR fell in the range of 251 to 1000 nM. Same read-out and setting: then `FC(F)(F)c1cc(SCc2nnn(-c3ccc(Cl)cc3)n2)ccn1` [Compound 138, 4-(((2-(4-Chlorophenyl)-2H-tetrazol-5-yl)methyl)thio)-2-(trifluoromethyl)pyridine], with 251 to 1000 nM.

Take `CC(C)Oc1ccc(-n2cc(CNc3cc(Cl)nc(C(F)(F)F)c3)nn2)cc1` [Compound 140, 2-chloro-N-((1-(4-isopropoxyphenyl)-1H-1,2,3-triazol-4-yl)methyl)-6-(trifluoromethyl)pyridin-4-amine]: the IC50 in test [1] was no more than 250 nM. On to `Fc1cccc2c1cnn2-c1ccc(-n2cc(CNc3cc(Cl)nc(C(F)(F)F)c3)nn2)cc1` [Compound 146, 2-chloro-N-((1-(4-(4-fluoro-1H-indazol-1-yl)phenyl)-1H-1,2,3-triazol-4-yl)methyl)-6-(trifluoromethyl)pyridin-4-amine], for which the IC50 in test [1] fell in the range of 251 to 1000 nM. On to `FC(F)(F)c1cc(NCc2cn(-c3ccc(-n4ncc5ncccc54)cc3)nn2)ccn1` [Compound 149, N-((1-(4-(1H-pyrazolo[4,3-b]pyridin-1-yl)phenyl)-1H-1,2,3-triazol-4-yl)methyl)-2-(trifluoromethyl)pyridin-4-amine], for which the IC50 at PqsR was no more than 50 nM. As for `FC(F)(F)c1cc(NCc2cn(-c3ccc(-n4ncc5ccccc54)cc3)nn2)cc(Cl)n1` [Compound 150, N-((1-(4-(1H-indazol-1-yl)phenyl)-1H-1,2,3-triazol-4-yl)methyl)-2-chloro-6-(trifluoromethyl)pyridin-4-amine], the IC50 in test [1] lay in the range of 251 to 1000 nM. As to `FC(F)(F)c1cc(NCc2cn(-c3ccc(-n4ncc5ccncc54)cc3)nn2)cc(Cl)n1` [Compound 151, N-((1-(4-(1H-pyrazolo[3,4-c]pyridin-1-yl)phenyl)-1H-1,2,3-triazol-4-yl)methyl)-2-chloro-6-(trifluoromethyl)pyridin-4-amine], the IC50 in test [1] is 251 to 1000 nM. Consider `CC(C)Oc1ccc(-c2ncc(CNc3cc(C#N)nc(C(F)(F)F)c3)s2)cc1` [Compound 163, 4-(((2-(4-Isopropoxyphenyl)thiazol-5-yl)methyl)amino)-6-(trifluoromethyl)picolinonitrile], for which the IC50 in test [1] is no more than 250 nM. With `Fc1ccccc1Oc1ccc(-c2ncc(CNc3cc(Cl)nc(C(F)(F)F)c3)cn2)cc1` [Compound 167, 2-chloro-N-((2-(4-(2-fluorophenoxy)phenyl)pyrimidin-5-yl)methyl)-6-(trifluoromethyl)pyridin-4-amine], the IC50 in test [1] is no more than 250 nM. As for `CC(C)Oc1ccc(-c2ncc(CNc3cc(Cl)nc(C(F)(F)F)c3)cn2)cc1` [Compound 168, 2-chloro-N-((2-(4-isopropoxyphenyl)pyrimidin-5-yl)methyl)-6-(trifluoromethyl)pyridin-4-amine], in test [1], the IC50 was no more than 250 nM. In the case of `O=[N+]([O-])c1cc(-c2ncc(CNc3cc(Cl)nc(C(F)(F)F)c3)cn2)ccc1Cl` [Compound 169, 2-chloro-N-((2-(4-chloro-3-nitrophenyl)pyrimidin-5-yl)methyl)-6-(trifluoromethyl)pyridin-4-amine], the IC50 in test [1] is no more than 250 nM. On to `Fc1cccc(Oc2ccc3[nH]c(CSc4ccnc(C(F)(F)F)c4)nc3c2)c1` [Compound 170, 5-(3-fluorophenoxy)-2-(((2-(trifluoromethyl)pyridin-4-yl)thio)methyl)-1H-benzo[d]imidazole], for which, in test [1], the IC50 is no more than 250 nM. On the same count and under the same terms, then `Nc1cc(SCc2nc3cc(Oc4cccc(F)c4)ccc3[nH]2)nc(C(F)(F)F)n1` [Compound 171, 6-(((5-(3-fluorophenoxy)-1H-benzo[d]imidazol-2-yl)methyl)thio)-2-(trifluoromethyl)pyrimidin-4-amine], with no more than 250 nM.
